Test results: PMC8377444 (Pharmacology Research & Perspectives, 2021)

Legend:
mouse models of SLE = settings: cited from earlier work
TLR7/8 [1] = settings: in vitro and ex vivo; cited from earlier work
[2] = Treatment-emergent adverse events, single ascending dose; format: in vivo, human
[3] = Safety under fed conditions; format: in vivo, human; settings: single dose 25 mg
[4] = Plasma pharmacokinetics, single 25 mg dose fed / food effect; format: in vivo, human; settings: high-fat, high-calorie meal
TLR7/8 [5] = test: Ex vivo R848-stimulated whole blood cytokine release immunoassay, IL-6 secretion; format: in vivo, human
[6] = Safety and tolerability assessments, whole study; format: in vivo, human

For N#Cc1ccc(N2C[C@H](N)C[C@H](C(F)(F)F)C2)c2cccnc12 [enpatoran], the “Disease activity in mouse models of SLE” value (mouse models of SLE) is given as “suppress disease activity”, the “Sustained inhibition of IL-6” value (mouse models of SLE; lowest efficacious dose in mouse models of SLE) is given as 60% and the “Activation of TLR7/8” value (TLR7/8 [1]) is given as “inhibit the activation of TLR7/8”. The Study intervention-related flatulence ([2]; SAD cohorts) was “three”, the “TEAE: Flatulence” value ([2]; single dose 3 mg, n = 6) was 4 (66.7) Number (%) of participants and the “TEAEs reported during Part C” value [3] was “no TEAEs were reported”. The “Decrease in CL/F, fed versus fasting” value [4] was “approximately 25%”, the “Inhibition of IL-6 secretion maintained throughout the dosing interval” value (TLR7/8 [5]; 200 mg QD, 25 mg BID and 50 mg BID) was “At least 60%” and the “Dose with maximum inhibition of ex vivo-stimulated IL-6 secretion” value (TLR7/8 [5]; doses up to 200 mg) was 200 mg. For the same compound, the “Time of peak TLR7/8 target modulation” value (TLR7/8 [5]; post-dose) was 2 h, the “Dose dependence of TEAEs” value ([6]; Parts A and B) was “No dose‐dependent TEAEs were observed” and the “Severity of TEAEs” value ([6]; Parts A and B, all TEAEs) was “mild to moderate”. The Tolerability ([6]; single and multiple oral doses up to 200 mg, fasting or fed) was “well tolerated”, the Deaths ([6]; whole study) was “no deaths” and the “Discontinuations due to TEAEs” value ([6]; whole study) was “no discontinuations due to TEAEs”. The “Serious AEs” value ([6]; whole study) was “No serious AEs occurred” and the “Changes in laboratory values, vital signs or ECGs” value ([6]; whole study period) was “No clinically relevant changes”.
